Results published in BindingDB's records for doi:10.1021/jm025595i (Enanta Pharmaceuticals, 2003).

experiment: Compound was evaluated for its inhibitory activity in a calcineurin inhibition assay (morn)

Row | IC50 [nM] | SMILES
1 | 348 | CC[C@@H]1NC(=O)[C@H]([C@H](O)[C@H](C)C/C=C/C(=O)OCSC)N(C)C(=O)[C@H](C(C)C)N(C)C(=O)[C@H](CC(C)C)N(C)C(=O)[C@H](CC(C)C)N(C)C(=O)[C@@H](C)NC(=O)[C@H](C)NC(=O)[C@H](CC(C)C)N(C)C(=O)[C@H](C(C)C)NC(=O)[C@H](CC(C)C)N(C)C(=O)CN(C)C1=O [Cyclosporin A analogue]
2 | 742 | CC[C@@H]1NC(=O)[C@H]([C@H](O)[C@H](C)C/C=C/C(=O)OCOC)N(C)C(=O)[C@H](C(C)C)N(C)C(=O)[C@H](CC(C)C)N(C)C(=O)[C@H](CC(C)C)N(C)C(=O)[C@@H](C)NC(=O)[C@H](C)NC(=O)[C@H](CC(C)C)N(C)C(=O)[C@H](C(C)C)NC(=O)[C@H](CC(C)C)N(C)C(=O)CN(C)C1=O [6-(5-Ethyl-11,17,26,29-tetraisobutyl-14,32-diisopropyl-1,7,10,16,20,23,25,28,31-nonamethyl-3,6,9,12,15,18,21,24,27,30,33-undecaoxo-1,4,7,10,13,16,19,22,25,28,31undecaaza-cyclotritriacont-2-yl)-6-hydroxy-5-methyl-hex-2-enoic acid methoxymethyl ester]

experiment: Compound was evaluated for its inhibitory activity in a calcineurin inhibition assay (MOM)

Row | IC50 [nM] | SMILES
3 | 1920 | CC[C@@H]1NC(=O)[C@H]([C@H](O)[C@H](C)C/C=C/C(=O)OCOC)N(C)C(=O)[C@H](C(C)C)N(C)C(=O)[C@H](CC(C)C)N(C)C(=O)[C@H](CC(C)C)N(C)C(=O)[C@@H](C)NC(=O)[C@H](C)NC(=O)[C@H](CC(C)C)N(C)C(=O)[C@H](C(C)C)NC(=O)[C@H](CC(C)C)N(C)C(=O)CN(C)C1=O [6-(5-Ethyl-11,17,26,29-tetraisobutyl-14,32-diisopropyl-1,7,10,16,20,23,25,28,31-nonamethyl-3,6,9,12,15,18,21,24,27,30,33-undecaoxo-1,4,7,10,13,16,19,22,25,28,31undecaaza-cyclotritriacont-2-yl)-6-hydroxy-5-methyl-hex-2-enoic acid methoxymethyl ester]

experiment: Compound was evaluated for its inhibitory activity in a calcineurin inhibition assay

Row | IC50 [nM] | SMILES
4 | 840 | CCOC(=O)CCC[C@@H](C)[C@@H](O)[C@H]1C(=O)N[C@@H](CC)C(=O)N(C)CC(=O)N(C)[C@@H](CC(C)C)C(=O)N[C@@H](C(C)C)C(=O)N(C)[C@@H](CC(C)C)C(=O)N[C@@H](C)C(=O)N[C@H](C)C(=O)N(C)[C@@H](CC(C)C)C(=O)N(C)[C@@H](CC(C)C)C(=O)N(C)[C@@H](C(C)C)C(=O)N1C [6-(5-Ethyl-11,17,26,29-tetraisobutyl-14,32-diisopropyl-1,7,10,16,20,23,25,28,31-nonamethyl-3,6,9,12,15,18,21,24,27,30,33-undecaoxo-1,4,7,10,13,16,19,22,25,28,31undecaaza-cyclotritriacont-2-yl)-6-hydroxy-5-methyl-hexanoic acid ethyl ester]
5 | 363 | CCOC(=O)/C=C/C[C@@H](C)[C@@H](O)[C@H]1C(=O)N[C@@H](CC)C(=O)N(C)CC(=O)N(C)[C@@H](CC(C)C)C(=O)N[C@@H](C(C)C)C(=O)N(C)[C@@H](CC(C)C)C(=O)N[C@@H](C)C(=O)N[C@H](C)C(=O)N(C)[C@@H](CC(C)C)C(=O)N(C)[C@@H](CC(C)C)C(=O)N(C)[C@@H](C(C)C)C(=O)N1C [6-(5-Ethyl-11,17,26,29-tetraisobutyl-14,32-diisopropyl-1,7,10,16,20,23,25,28,31-nonamethyl-3,6,9,12,15,18,21,24,27,30,33-undecaoxo-1,4,7,10,13,16,19,22,25,28,31undecaaza-cyclotritriacont-2-yl)-6-hydroxy-5-methyl-hex-2-enoic acid ethyl ester]
6 | > 5000 | CC[C@@H]1NC(=O)[C@H]([C@H](O)[C@H](C)CCCC(=O)OCSC)N(C)C(=O)[C@H](C(C)C)N(C)C(=O)[C@H](CC(C)C)N(C)C(=O)[C@H](CC(C)C)N(C)C(=O)[C@@H](C)NC(=O)[C@H](C)NC(=O)[C@H](CC(C)C)N(C)C(=O)[C@H](C(C)C)NC(=O)[C@H](CC(C)C)N(C)C(=O)CN(C)C1=O [6-(5-Ethyl-11,17,26,29-tetraisobutyl-14,32-diisopropyl-1,7,10,16,20,23,25,28,31-nonamethyl-3,6,9,12,15,18,21,24,27,30,33-undecaoxo-1,4,7,10,13,16,19,22,25,28,31undecaaza-cyclotritriacont-2-yl)-6-hydroxy-5-methyl-hexanoic acid methylsulfanylmethylester]
7 | 636 | CC[C@@H]1NC(=O)[C@H]([C@H](O)[C@H](C)C/C=C/C(=O)OCCF)N(C)C(=O)[C@H](C(C)C)N(C)C(=O)[C@H](CC(C)C)N(C)C(=O)[C@H](CC(C)C)N(C)C(=O)[C@@H](C)NC(=O)[C@H](C)NC(=O)[C@H](CC(C)C)N(C)C(=O)[C@H](C(C)C)NC(=O)[C@H](CC(C)C)N(C)C(=O)CN(C)C1=O [6-(5-Ethyl-11,17,26,29-tetraisobutyl-14,32-diisopropyl-1,7,10,16,20,23,25,28,31-nonamethyl-3,6,9,12,15,18,21,24,27,30,33-undecaoxo-1,4,7,10,13,16,19,22,25,28,31undecaaza-cyclotritriacont-2-yl)-6-hydroxy-5-methyl-hex-2-enoic acid 2-fluoro-ethyl ester]
8 | 581 | CC[C@@H]1NC(=O)[C@H]([C@H](O)[C@H](C)C/C=C/C(=O)OC)N(C)C(=O)[C@H](C(C)C)N(C)C(=O)[C@H](CC(C)C)N(C)C(=O)[C@H](CC(C)C)N(C)C(=O)[C@@H](C)NC(=O)[C@H](C)NC(=O)[C@H](CC(C)C)N(C)C(=O)[C@H](C(C)C)NC(=O)[C@H](CC(C)C)N(C)C(=O)CN(C)C1=O [6-(5-Ethyl-11,17,26,29-tetraisobutyl-14,32-diisopropyl-1,7,10,16,20,23,25,28,31-nonamethyl-3,6,9,12,15,18,21,24,27,30,33-undecaoxo-1,4,7,10,13,16,19,22,25,28,31undecaaza-cyclotritriacont-2-yl)-6-hydroxy-5-methyl-hex-2-enoic acid methyl ester]
9 | 890 | CC[C@@H]1NC(=O)[C@H]([C@H](O)[C@H](C)CCCC(=O)OC)N(C)C(=O)[C@H](C(C)C)N(C)C(=O)[C@H](CC(C)C)N(C)C(=O)[C@H](CC(C)C)N(C)C(=O)[C@@H](C)NC(=O)[C@H](C)NC(=O)[C@H](CC(C)C)N(C)C(=O)[C@H](C(C)C)NC(=O)[C@H](CC(C)C)N(C)C(=O)CN(C)C1=O [6-(5-Ethyl-11,17,26,29-tetraisobutyl-14,32-diisopropyl-1,7,10,16,20,23,25,28,31-nonamethyl-3,6,9,12,15,18,21,24,27,30,33-undecaoxo-1,4,7,10,13,16,19,22,25,28,31undecaaza-cyclotritriacont-2-yl)-6-hydroxy-5-methyl-hexanoic acid methyl ester]
10 | 1540 | CC[C@@H]1NC(=O)[C@H]([C@H](O)[C@H](C)CCCC(=O)OCCF)N(C)C(=O)[C@H](C(C)C)N(C)C(=O)[C@H](CC(C)C)N(C)C(=O)[C@H](CC(C)C)N(C)C(=O)[C@@H](C)NC(=O)[C@H](C)NC(=O)[C@H](CC(C)C)N(C)C(=O)[C@H](C(C)C)NC(=O)[C@H](CC(C)C)N(C)C(=O)CN(C)C1=O [6-(5-Ethyl-11,17,26,29-tetraisobutyl-14,32-diisopropyl-1,7,10,16,20,23,25,28,31-nonamethyl-3,6,9,12,15,18,21,24,27,30,33-undecaoxo-1,4,7,10,13,16,19,22,25,28,31undecaaza-cyclotritriacont-2-yl)-6-hydroxy-5-methyl-hexanoic acid 2-fluoro-ethyl ester]
11 | > 5000 | CC[C@@H]1NC(=O)[C@H]([C@H](O)[C@H](C)C/C=C/C(=O)O)N(C)C(=O)[C@H](C(C)C)N(C)C(=O)[C@H](CC(C)C)N(C)C(=O)[C@H](CC(C)C)N(C)C(=O)[C@@H](C)NC(=O)[C@H](C)NC(=O)[C@H](CC(C)C)N(C)C(=O)[C@H](C(C)C)NC(=O)[C@H](CC(C)C)N(C)C(=O)CN(C)C1=O [6-(5-Ethyl-11,17,26,29-tetraisobutyl-14,32-diisopropyl-1,7,10,16,20,23,25,28,31-nonamethyl-3,6,9,12,15,18,21,24,27,30,33-undecaoxo-1,4,7,10,13,16,19,22,25,28,31undecaaza-cyclotritriacont-2-yl)-6-hydroxy-5-methyl-hex-2-enoic acid]

experiment: Compound was evaluated for its inhibitory activity in a calcineurin inhibition assay (MTM)

Row | IC50 [nM] | SMILES
12 | 2150 | CC[C@@H]1NC(=O)[C@H]([C@H](O)[C@H](C)C/C=C/C(=O)OCSC)N(C)C(=O)[C@H](C(C)C)N(C)C(=O)[C@H](CC(C)C)N(C)C(=O)[C@H](CC(C)C)N(C)C(=O)[C@@H](C)NC(=O)[C@H](C)NC(=O)[C@H](CC(C)C)N(C)C(=O)[C@H](C(C)C)NC(=O)[C@H](CC(C)C)N(C)C(=O)CN(C)C1=O [Cyclosporin A analogue]
